Paper PMC7696940, “Effects of Rationally Designed Physico-Chemical Variants of the Peptide PuroA on Biocidal Activity towards Bacterial and Mammalian Cells” (International Journal of Molecular Sciences, 2020)
In brackets after ≈: the same amount, converted by molar mass. Where no end group is shown, it is not given here.

Columns and labels:
E. coli and S. aureus = test: Salt tolerance (MICs under 0-150 mM NaCl, summary); format: cell-based, Escherichia coli; Staphylococcus aureus; design: key: Up to 50 mM: no effects on antibacterial activity up to 50 mM NaCl but increase in the MICs for E. coli and S. aureus at 100 mM NaCl; Intolerant: not resistant to salt effects even at 50 mM NaCl; Up to 150 mM: no effects on antibacterial activity up to 150 mM NaCl; details: MICs for E. coli and S. aureus in MHB with 0, 50, 100 or 150 mM NaCl
Protocol: (§1) The activity of peptides was determined against the Gram-positive Staphylococcus aureus (ATCC 25923), and the Gram-negative Escherichia coli (ATCC 25922) and Pseudomonas aeruginosa (ATCC 9027) bacteria. Selected peptides were also tested against two clinical isolates of methicillin-resistant Staphylococcus aureus (MRSA), M173525 and M180920, kindly provided by Dr P. B. Ward (Microbiology Department, Austin and Repatriation Medical Centre, Heidelberg West, Victoria, Australia). The Minimum inhibitory concentration (MIC) of peptides was determined by the microtitre broth dilution method, as described in Phillips et al.. Briefly, bacteria were grown in Mueller-Hinton Broth (MHB) at 37 °C overnight with shaking (200 rpm). The cultures were adjusted to 0.5 McFarland turbidity standard (approximately 1 × 10^8 colony forming units (CFU)/mL), then diluted 1:100 in MHB (1 × 10^6 CFU/mL). A total of 75 μL of these suspensions were mixed with 25 μL of peptide solutions (final concentrations 250 to 0.5 μg/mL) and the microtitre plates incubated overnight at 37 °C. Positive growth controls (inoculum and MHB, with no peptide) and sterility controls (0.01% glacial acetic) were also included. Post-incubations, the absorbance of cultures at 595 nm was measured using a microplate reader (POLARstar Omega, Germany). […] To evaluate salt sensitivity of peptides up to physiological levels (150 mM NaCl), overnight cultures of S. aureus and E. coli adjusted to 0.5 McFarland turbidity standard were diluted 1:100 in MHB containing 0, 50, 100 or 150 mM NaCl, and the MICs of peptides determined as above. All tests were conducted in triplicate. The results are shown as the mode of values obtained.

[1] = test system: porcine trypsin and proteinase K; test: Proteases stability assay; format: in vitro ADME, porcine; Tritirachium album; details: 1000 µg peptide with 50 µg protease (20:1 w/w), porcine trypsin or proteinase K, PBS pH 7.4, 37 °C, 3 h; read-out activity of supernatant on E. coli and S. aureus; triplicate
Protocol: The effect of two well-studied proteases, porcine trypsin and proteinase K from Tritirachium album, on the activity of peptides was investigated as per Carmona et al.. Briefly, 1000 µg of a peptide was incubated with 50 µg of a protease (20:1 w/w) at 37 °C for 3 h in phosphate buffered saline PBS (pH 7.4). The enzyme activity was then terminated by heating (70 °C, 5 min) and the samples centrifuged at 12,000× g. The activity of the supernatant on E. coli and S. aureus was tested as above, in triplicate.

E. coli ATCC25922 = format: cell-based, Escherichia coli; details: MHB; for MIC E. coli, No NaCl: 0 mM NaCl; for MIC E. coli, No NaCl / MIC E. coli, With 50mM NaCl / MIC E. coli, With 100mM NaCl / MIC E. coli, With 150mM NaCl: triplicate, mode; for MIC E. coli ATCC25922: 37 °C overnight, A595, mode of three independent experiments
Protocol: as §1

C. albicans FRR 5580 = format: cell-based, Candida albicans; details: PDB, overnight; mode of three independent experiments
Protocol: The assay was carried out as per Alfred et al.. Candida albicans (FRR 5580) was grown in potato dextrose broth (PDB; Difco-BD, Bergen County, NJ, USA) overnight at 30 °C with shaking (200 rpm) until exponential phase, then adjusted to 0.5 McFarland turbidity standard (approximately 1 × 10^6 cells/mL) and diluted 1:200 with PDB to 0.5 − 2 × 10^3 cells/mL. Peptides in 25 μL volumes were mixed with 75 μL of the yeast suspensions. The controls were included as above. The plates were incubated overnight and absorbance was recorded. All the tests were conducted in triplicate.

NIH-3T3 cells = test: Cytotoxicity, MTT assay; format: cell-based, mouse; details: 24 h; for IC50 NIH-3T3: peptide up to 250 µg/mL, concentration causing 50% cell growth inhibition, mean of triplicate assays
Protocol: (§2) Cytotoxicity to human cervical carcinoma HeLa cells and mouse fibroblastic NIH-3T3 cells was determined using the MTT assay as per Scudiero et al. with minor modifications. The cells were maintained in Dulbecco’s Modified Eagle Medium (DMEM) with 10% foetal bovine serum (FBS) and 1% penicillin G in a humidified incubator (Heraeus Hera Cell incubator) at 37 °C with 5% CO2. They were seeded in 96-well microtiter plates at 1 × 10^4 cells/well and allowed to adhere for 24 h in the incubator. The medium was removed, and adherent cells were washed with PBS. Fresh media containing serially diluted peptides in PBS (final concentrations 4 to 250 µg/mL) were added and the cells incubated for 24 h. Cells without peptides were used as negative controls. Following incubations, the medium was removed, and adherent cells were washed with PBS. 150 µL of MTT (diluted to 0.33 mg/mL in DMEM) and the plates incubated for 3 h. The precipitated formazan was dissolved in 100 µL of DMSO and its absorbance measured at 570 nm. Cell viability was determined as: (OD570 nm peptide treated cells/(OD570 nm untreated cells) × 100. Positive cytotoxicity was defined as peptide concentration that causes 50% growth inhibition in a cell line (IC50). All tests were carried out in triplicate.

P. aeruginosa ATCC9027 = format: cell-based, Pseudomonas aeruginosa; details: MHB, 37 °C overnight, A595; mode of three independent experiments
Protocol: as §1

HeLa cells = format: cell-based, human; details: MTT, 24 h, peptide up to 250 µg/mL; concentration causing 50% cell growth inhibition; mean of triplicate assays
Protocol: as §2

S. aureus ATCC25923 = format: cell-based, Staphylococcus aureus; details: MHB; for MIC S. aureus, No NaCl: 0 mM NaCl; for MIC S. aureus, No NaCl / MIC S. aureus, With 50mM NaCl / MIC S. aureus, With 100mM NaCl / MIC S. aureus, With 150mM NaCl: triplicate, mode; for MIC S. aureus ATCC25923: 37 °C overnight, A595, mode of three independent experiments
Protocol: as §1

| Molecule | Salt Tolerance (E. coli and S. aureus) | Protease Stability [1] | MIC E. coli, No NaCl (E. coli ATCC25922) [µg/mL] | MIC E. coli, With 50mM NaCl (E. coli ATCC25922) [µg/mL] | MIC E. coli, With 100mM NaCl (E. coli ATCC25922) [µg/mL] | MIC E. coli, With 150mM NaCl (E. coli ATCC25922) [µg/mL] | MIC E. coli ATCC25922 (E. coli ATCC25922) [µg/mL] | MIC C. albicans FRR 5580 (C. albicans FRR 5580) [µg/mL] | IC50 NIH-3T3 (NIH-3T3 cells) [µg/mL] | Cytotoxicity to NIH-3T3 mouse fibroblasts (in words) (NIH-3T3 cells; up to 250 µg/mL) | MIC P. aeruginosa ATCC9027 (P. aeruginosa ATCC9027) [µg/mL] | IC50 HeLa (HeLa cells) [µg/mL] | MIC S. aureus, No NaCl (S. aureus ATCC25923) [µg/mL] | MIC S. aureus, With 50mM NaCl (S. aureus ATCC25923) [µg/mL] | MIC S. aureus, With 100mM NaCl (S. aureus ATCC25923) [µg/mL] | MIC S. aureus, With 150mM NaCl (S. aureus ATCC25923) [µg/mL] | MIC S. aureus ATCC25923 (S. aureus ATCC25923) [µg/mL] |
| --- | --- | --- | --- | --- | --- | --- | --- | --- | --- | --- | --- | --- | --- | --- | --- | --- | --- |
| CC(C)[C@H](NC(=O)[C@@H]1CCCN1C(=O)[C@@H](N)Cc1ccccc1)C(=O)N[C@H](C(=O)N[C@@H](Cc1c[nH]c2ccccc12)C(=O)N[C@@H](CCCNC(=N)N)C(=O)N[C@@H](Cc1c[nH]c2ccccc12)C(=O)N[C@@H](Cc1c[nH]c2ccccc12)C(=O)N[C@@H](CCCCN)C(=O)N[C@@H](Cc1c[nH]c2ccccc12)C(=O)N[C@@H](Cc1c[nH]c2ccccc12)C(=O)N[C@@H](CCCCN)C(=O)NCC(=O)NCCCC[C@@H](NC(=O)CNC(=O)[C@H](CCCCN)NC(=O)[C@H](Cc1c[nH]c2ccccc12)NC(=O)[C@H](Cc1c[nH]c2ccccc12)NC(=O)[C@H](CCCCN)NC(=O)[C@H](Cc1c[nH]c2ccccc12)NC(=O)[C@H](Cc1c[nH]c2ccccc12)NC(=O)[C@H](CCCNC(=N)N)NC(=O)[C@H](Cc1c[nH]c2ccccc12)NC(=O)[C@@H](NC(=O)[C@@H](NC(=O)[C@@H]1CCCN1C(=O)[C@@H](N)Cc1ccccc1)C(C)C)[C@@H](C)O)C(N)=O)[C@@H](C)O [Di-PuroA] | Intolerant | Unstable | – | – | – | – | – | – | – | – | – | – | – | – | – | – | – |
| CC(C)[C@H](NC(=O)[C@@H]1CCCN1C(=O)[C@@H](N)Cc1ccccc1)C(=O)N[C@H](C(=O)N[C@@H](Cc1c[nH]c2ccccc12)C(=O)N[C@@H](CCCNC(=N)N)C(=O)N[C@@H](Cc1c[nH]c2ccccc12)C(=O)N[C@@H](Cc1c[nH]c2ccccc12)C(=O)N[C@@H](CCCCN)C(=O)N[C@@H](Cc1c[nH]c2ccccc12)C(=O)N[C@@H](Cc1c[nH]c2ccccc12)C(=O)N[C@@H](CCCCN)C(=O)NCC(=O)O)[C@@H](C)O [PuroA-OH] | Intolerant | Unstable | 32 (≈ 17.2 µM) | 64 (≈ 34.3 µM) | > 250 | > 250 | 32 (≈ 17.2 µM) | 250 (≈ 134 µM) | >250 | no cytotoxicity | 125 (≈ 67.1 µM) | >250 | 64 (≈ 34.3 µM) | 125 (≈ 67.1 µM) | > 250 | > 250 | 64 (≈ 34.3 µM) |
| RKRWWRWWKWWKR-NH2 [dP1, diastereomeric counterpart of P1] | Up to 150 mM | – | 16 | 16 | 16 | 16 | – | 64 | 250 | – | 16 | 125 | 16 | 16 | 16 | 16 | – |
| RWWKWW-NH2 [Peptide R6] | Intolerant | Unstable | 32 | 64 | 250 | > 250 | 32 | 64 | 250 | – | 32 | >250 | 16 | 32 | 250 | > 250 | 16 |
| RWWKWWK-NH2 [Peptide R7] | Intolerant | Unstable | 8 | 32 | 250 | > 250 | 8 | 64 | 250 | – | 32 | >250 | 16 | 32 | 250 | > 250 | 16 |
| WWRWWKWW-NH2 [dWW, diastereomeric counterpart of WW] | Up to 150 mM | – | 8 | 8 | 8 | 8 | 8 | 64 | 250 | – | 32 | 125 | 8 | 8 | 8 | 8 | 8 |
